System: blood flow volume of a hindlimb of the rat
Assay: Hindlimb blood flow volume of rats after oral administration, measured with a two-dimensional laser blood flow meter
Assay type: in vivo
Conditions: male SD rat hindlimb; for Increase in blood flow volume: one hour after oral administration vs before administration, average of three rats; for Increase in blood flow volume / Change in hindlimb blood flow volume between before and after the administration (in words): 10-hydroxydecanoic acid 120 mg/kg, 10-H2DA 420 mg/kg, Toki-shakuyaku-san 3750 mg/kg; for Change in hindlimb blood flow volume between before and after the administration (in words): one hour after oral administration
Experimental: As a test animal, a 6 to 8 week-old male rat Slc: SD rat (Japan SLC, Inc.) was used. As test substances, 10-hydroxydecanoic acid (manufactured by Combi-Blocks Inc.), trans-10-hydroxy-2-decenoic acid (referred to as “10-H2DA” hereinafter, manufactured by HANGZOU EASTBIOPHARM CO., LTD.) and Toki-shakuyaku-san (manufactured by TSUMURA & CO.) were used. A 0.5% w/v aqueous solution of methyl cellulose 400 (Wako Pure Chemical Industries, Ltd.) was prepared, and in the aqueous solution, the test substances were each suspended, thereby preparing a 12 mg/mL solution of 10-hydroxydecanoic acid, a 42 mg/ml solution of 10-H2DA and a 375 mg/ml solution of Toki-shakuyaku-san. The test animals were divided into four groups each consisting of three animals, and these groups were referred to as a 10-hydroxydecanoic acid group, a 10-H2DA group, a Toki-shakuyaku-san group and a control group. Using a gastric tube, the respective methyl cellulose aqueous solutions were orally administered to the 10-hydroxydecanoic acid group in such a desired amount that the amount of 10-hydroxydecanoic acid was 120 mg/kg, to the 10-H2DA group in such a desired amount that the amount of 10-H2DA was 420 mg/kg, and to the Toki-shakuyaku-san group in such a desired amount that the amount of Toki-shakuyaku-san was 3750 mg/kg. To the control group, a control substance (0.5% w/v methyl cellulose aqueous solution 10 mL/kg) was orally administered using a gastric tube.
Before the administration of the test substance and after one hour from the administration, a blood flow volume of a hindlimb of the rat was measured in an awaking and non-fixed state. For the measurement, a two-dimensional laser blood flow meter OZ-1 (manufactured by OMEGAWAVE INC.) was used. An increase in the blood flow volume (average value of three rats) based on that before the administration of each of the control group, the 10-hydroxydecanoic acid group, the 10-H2DA group and the Toki-shakuyaku-san group after one hour from the administration is shown in Table 1.

Row | Compound | Difference in blood flow volume between the control group and the treated group (one hour after oral administration of 120 mg/kg, FIG. 1) | Increase in blood flow volume | Change in hindlimb blood flow volume between before and after the administration (in words)
1 | O=C(O)CCCCCCCCCO [10-Hydroxydecanoic acid, 10-hydroxydecanoic acid] | a significant difference (P=0.01) | 5.8 arbitrary unit | a remarkable increase in the blood flow volume
2 | O=C(O)/C=C/CCCCCCCO [10-H2DA, trans-10-hydroxy-2-decenoic acid, reference compound] | – | 2.2 arbitrary unit | a certain increase in the blood flow volume

From US20190231740A1, “BLOOD FLOW-IMPROVING AGENT, ROYAL JELLY COMPOSITION, AND METHOD FOR PRODUCING ROYAL JELLY COMPOSITION” (YAMADA BEE COMPANY, INC., priority 2016, published 2019)
